“Also recorded” adds a separate entry of the source.
Key:
[1] = system: multiple myeloma cell lines (LP1, OPM2, MOLP1, RPMI8226, U266B1, NCIH929); assay: Cell proliferation (EdU as indicator) in multiple myeloma cell lines; type: cell-based; conditions: FGFR3 positive and FGFR3 negative MM cell lines
Method: (§1) Six multiple myeloma cell lines were tested in this example for the expression level of p90RSK. The cell lines included LP1, OPM2, MOLP1, RPMI8226, U266B1, and NCIH929. Beta-actin was used as control, and the expression levels of FGF receptor 3 (FGFR3), phospho-S380 RSK. and RSK1/RSK2/RSK3 were also measured.
(§2) Cerdulatinib was tested with same cell lines as used in Example 1. […] Also like BI-D1870, there was no relationship between the activity of cerdulatinib and the status of FGFR3.

[2] = system: multiple myeloma cell lines (LP1, OPM2, MOLP1, RPMI8226, U266B1, NCIH929); assay: Caspase3 activation (apoptosis) in multiple myeloma cell lines; type: cell-based; conditions: FGFR3 positive and FGFR3 negative MM cell lines; BI-D1870 at 1.2 μM, 2.5 μM, 5 μM
Method: as §1
A p90RSK inhibitor, BI-D1870 (see, e.g., Sapkota et al., Biochem J. 2007, 401(Pt 1): 29-38), was added to the medium for each cell line at three difference concentrations. 1.2 μM, 2.5 μM, and 5 μM.
as §2

[3] = system: SYK and JAK signaling; assay: Whole blood assays of SYK and JAK signaling (BCR, IL2, IL4, IL6, GM-CSF); type: in vivo, human; conditions: 45 mg BID; steady-state Cmin; peripheral blood assays
Method: (§3) Methods: This experiment was a 3+3 dose escalation study with 28-day cycles and doses studied ranging from 15 mg to 100 mg QD, and up to 45 mg BID. PK, PD, and safety were monitored. Clinical response was assessed by standard criteria. The level of inhibition of SYK and JAK was determined by multiple whole blood assays measuring signaling via BCR, IL2, IL4, IL6, and GM-CSF. Serum markers of tumor burden-CCL3, CCL4, and other markers of inflammation-B2M, CRP, were also measured.

[4] = Pharmacokinetics in 3+3 dose escalation study; type: in vivo, human
Method: as §3

[5] = system: patients with CLL/SLL or B cell NHL; assay: Safety in 3+3 dose escalation study; type: in vivo, human
Method: as §3
(§4) Results: As of Jan. 7, 2016, 41 patients (pt) with CLL/SLL or B cell NHL were dosed. Median age was 67 years (range 23-85) and median prior therapies (tx) was 3 (range 1-8). […] The patient with grade 3 AST had tumor progression to the liver. The pancreatitis at 45 mg BID was considered at DLT and the cohort is expanding to approximately 6 patients.

[6] = system: patients with CLL/SLL or B cell NHL; assay: Clinical response by standard criteria in dose escalation study; type: in vivo, human; conditions: 28-day cycles
Method: as §3, §4

[7] = system: serum markers of inflammation (B2M, CRP); assay: Serum markers of inflammation in dosed patients; type: in vivo, human; conditions: once daily 40-100 mg
Method: as §3

[8] = system: AML (Acute Myeloid Leukemia) cell lines; assay: Cytotoxicity in AML cell lines; type: cell-based; conditions: four different AML cell lines; compared with Ruxolitinib and Comp A
Method: The cytotoxicity of cerdulatinib in AML (Acute Myeloid Leukemia) was tested in four different cell lines.

[9] = system: DLBCL, MCL, Burkitt's lymphoma, ALL, MM and AML cells; assay: Cytotoxicity (IC50) across cancer types; type: cell-based
Source text: The cytotoxicity of cerdulatinib was also compared to Comp A in other types of cancer cells.

SMILES	inhibition of cell proliferation (EdU as indicator) [1]	activation of Caspase3 expression (indicator of apoptosis) [2]	inhibition of SYK and JAK [3]	steady-state Cmin ([4]; 45 mg BID)	change in systemic exposure ([4]; 45 mg BID relative to previous dose levels)	average steady state Cmin ([4]; 40-100 mg dose range, once daily)	Cmax ([4]; human, in vivo, 40-100 mg dose range, once daily, read-out: average steady state Cmax)	half-life ([4]; human, in vivo, patients, once daily dosing)	solubility / dissolution ([4]; inferred from plateau of exposure over 40-100 mg)	tolerability ([5]; 15 mg to 100 mg QD, up to 45 mg BID, 41 patients)	treatment emergent AEs of ≥ grade 3 deemed related to study drug ([5]; 30 mg)	treatment emergent AEs of ≥ grade 3 deemed related to study drug ([5]; 45 mg)	treatment emergent AEs of ≥ grade 3 deemed related to study drug ([5]; 45 mg BID, considered DLT)	treatment emergent AEs of ≥ grade 3 deemed related to study drug ([5]; 50 mg)	treatment emergent AEs of ≥ grade 3 deemed related to study drug ([5]; 65 mg)	treatment emergent AEs of ≥ grade 3 deemed related to study drug ([5]; 100 mg)	time at which responses occurred [6]	inhibition of serum markers of inflammation [7]	cytotoxicity in AML cells [8]	IC50 (cytotoxicity) compared to Comp A [9]
CC(C)CCN1c2nc(Nc3cc(F)c(O)c(F)c3)ncc2N(C)C(=O)C1C (stereo not shown) [BI-D1870, reference compound]	dose-dependently inhibited cell proliferation	dose-dependently activated the expression of Caspase3																		
CCS(=O)(=O)N1CCN(c2ccc(Nc3ncc(C(N)=O)c(NC4CC4)n3)cc2)CC1 [cerdulatinib, 4-(cyclopropylamino)-2-(4-(4-(ethylsulfonyl)piperazin-1-yl)phenylamino)pyrimidine-5-carboxamide]	dose-dependently inhibited cell proliferation	activated apoptosis; also recorded: dose-dependently activated caspase3 expression	complete inhibition	approximately 1.5 μM	approximate doubling in exposure; also recorded: doubled	700 ± 200 nM	1380 nM	12 to 16 h	low pH solubility appeared to limit dissolution	well tolerated	neutropenia (n=2), anemia (n=1), and pneumocystis pneumonia (grade 5, n=1)	anemia, AST increase, hypotension, thrombocytopenia (n=1 for each), and fatigue (n=2)	pancreatitis (n=1)	anemia, neutropenia, abdominal pain, pneumonia, and fatigue (n=1 for each)	diarrhea and fatigue (n=1 for each)	nausea (n=1)	2 cycles of tx	Significant inhibition	more active than Ruxolitinib, a JAK inhibitor, and Comp A; also recorded: active in killing AML cells	more potent than Comp A
